Entries after “also recorded” stand apart in the source; their conditions may differ.
Key:
[1] = tested on: MM.1S Len-resistant cells; assay: MM.1S lenalidomide-resistant cell viability; type: cell-based, Human; conditions: 72 hours
Source text: The experiment was repeated twice and JQRA concentration was increased (as indicated) at the second time.

MM.1R cells = assay: MM.1R cell viability (WST); type: cell-based, Human; conditions: MM.1R (dexamethasone-resistant), 48 hours
Source text: (§1) The IC50 of WL40 for cell lines is shown.

20S proteasome = assay: Proteasome activity assay in lysates of treated MM.1S cells; type: cell-based, Human; conditions: cellular extracts of MM.1S cells treated 1 μM or 10 μM for 3 hours
Method: MM.1S cells, which were treated with DMSO control, bortezomib, or WL40 at indicated concentration for 3 hours; protein lysates were analyzed for different proteasome activities (CT-L, chymotrypsin-like; T-L, trypsin-like; C-L, caspase-like). FIG. 20B is a bar graph showing percent proteasome activity after normalization with DMSO control (mean±SD; n=3). Recombinant 20S proteasome was incubated with DMSO, bortezomib, or WL40 for 30 minutes, followed by assessment of the above-noted proteasome activities. FIG. 20C MM.1S cells were pretreated with exemplary proteasome inhibitor MG132 (10 μM) for 1 hour, followed by addition of WL40 (400 nM) for 8 hours. […] Total protein lysates were subjected to immunoblots for Rpn13 and α-tubulin. […] FIG. 20E ANBL6.BR cells were treated with WL40 (400 nM) or RA190 (500 nM) for 16 hours; protein lysates were subjected to immunoblot analysis using anti-Rpn13 or anti-β-actin Abs.
MM.1S cells were treated with WL40 (1 μM or 10 μM) or Bortezomib (1 μM) for 3 hours; cells were then harvested and lysed in lysis buffer, followed by removal of debris by centrifugation. Total protein (25 μg) was analyzed for proteasome activity using 20S proteasome Assay Kit (Calbiochem), as previously described.^33

[2] = tested on: HCT116 and HCT116-Rpn13KO cell lines; assay: HCT116 and HCT116-Rpn13KO cell viability; type: cell-based; conditions: HCT116 versus HCT116-Rpn13KO; 48 hours; Wst-1
Method: FIGS. 8A and 8B show HCT116 and HCT116-Rpn13KO cell lines that were treated with WL40 or WL44 at the indicated concentrations for 48 hours. Wst-1 assay was used to test cell viability.
CRISPR-Cas9 genome editing was performed to generate Rpn13-knockout (Rpn13-KO) HCT116 and MM.1S cell lines. Cells were transfected with Rpn13-CRISPR/Cas9-knockout (KO) plasmid (Santa Cruz Biotechnology, Inc., Santa Cruz, Calif., USA) using Lipofectamine 2000 (Thermo Fisher Scientific, Waltham, Mass., USA) or the cell line Nucleofector Kit V (Amaxa Biosystems, Cologne, Germany), respectively. After 48 h incubation, green fluorescent protein (GFP)-positive cells were sorted. Rpn13 KO was confirmed by both protein expression studies and DNA sequencing.

LC3A/B = assay: Autophagy marker LC3A/B immunoblot; type: cell-based, Human; conditions: ANBL6.BR or MM.1S; versus DMSO or RA190
INA6 MM cells = assay: INA6 cell viability; type: cell-based, Human; conditions: IL-6-dependent INA6; 48 hours
Source text: as §1

RPMI-8226 cells = assay: RPMI-8226 cell viability; type: cell-based, Human; conditions: p53-mutated RPMI-8226; 48 hours
Source text: as §1

MM.1S cells = assay: Annexin V/PI apoptosis assay in MM.1S cells; type: cell-based, Human; conditions: 200 nM, 16 hours
Method: FIGS. 22A to 22F show the mechanisms of WL40-induced MM cell death. […] MM.1S cells were treated with DMSO control or WL40 (200 nM) for 16 hours, and then analyzed for apoptosis using Annexin V/PI double staining assay (mean±SD; n=3; p<0.001). FIG. 22B is an immunoblot of MM.1S and ANBL6.BR cells, which were treated with DMSO control or WL40 (200 nM for MM.1S; 1 μM for ANBL6.BR) for 16 hours; protein lysates were then subjected to the immunoblotting using antibodies against poly ADP ribose polymerase (PARP), caspase-3, caspase-7, caspase-8, caspase-9, or β-actin. FL, full length; CF, cleaved fragment. FIG. 22C is a bar graph measuring enzymatic activity. MM.1S cells were treated with DMSO control or WL40 (200 nM) for 12 hours, followed by the measurement of caspase-3, caspase-8, or caspase-9 enzymatic activity (mean±SD; n=3; p<0.0001). FIG. 22D is an immunoblot of MM.1S and ANBL6.BR cells, which were treated with DMSO control or WL40 (200 nM for MM.1S; 1 μM for ANBL6.BR) for 16 hours; protein lysates were then subjected to the immunoblotting using specific antibodies against Cyclin-B1, Cell Division Cycle 25C (CDC25C), Cell Division Cycle 2 (CDCl2), or β-actin. […]

normal PBMCs = assay: Viability of normal PBMCs; type: cell-based, Human; conditions: 48 hours
Method: FIGS. 5A and 5B show PBMCs from normal healthy donor treated with WL40 and WL44 at the indicated concentrations for 48 hours. […]
as §1

SMILES	cytotoxicity (percentage of viable cells) [1]	cytotoxicity (cell viability) (MM.1R cells)	20S proteasomal activities (chymotrypsin-like, trypsin-like, caspase-like) (20S proteasome)	RPN13 dependence of cytotoxicity [2]	LC3A/B level / LC3 activation (LC3A/B)	cytotoxic activity (cell viability) (INA6 MM cells)	cytotoxic activity (cell viability) (RPMI-8226 cells)	apoptosis (Annexin V/PI) (MM.1S cells)	viability of normal PBMCs (normal PBMCs; at the IC50, Wst-1)	viability of normal PBMCs (normal PBMCs; at the IC50 for MM cells, CellTiter-Glo)
Cl.N[C@@H](Cc1ccccc1)C(=O)N1C/C(=C/c2ccc(Cl)c(Cl)c2)C(=O)/C(=C\c2ccc(Cl)c(Cl)c2)C1 [RA190, reference compound]	more robust MM cytotoxicity	–	–	–	–	–	–	–	–	–
O=C1CCC(N2C(=O)c3cccc(NCCOCCOCCOCCC(=O)N[C@@H](Cc4ccccc4)C(=O)N4C/C(=C\c5ccc(Cl)c(Cl)c5)C(=O)/C(=C/c5ccc(Cl)c(Cl)c5)C4)c3C2=O)C(=O)N1 (stereo partly shown) [WL40]	–	more cytotoxic than the parental Rpn13 inhibitor RA190	does not inhibit 20S proteasomal activities	RPN13-dependent	significant increase in LC3A/B; also recorded: more pronounced LC3 activation	cytotoxic activity	cytotoxic activity	increase in early- (Annexin V^+/PI^−) and late-stage (Annexin V^+/PI^+) apoptosis	do not significantly affect the viability	does not affect viability of normal PBMCs

From patent publication US11702402B2, “Small molecules that block proteasome-associated ubiquitin receptor RPN13 function and uses thereof” (DANA-FARBER CANCER INSTITUTE, INC., priority 2018, dated 2023)
